Target: human adenosine A2b receptor (Homo sapiens (Human), UniProt P29275)
Assay: Cellular in vitro reporter gene test for A2b receptor activity (CHO-K1, CRE-luciferase, NECA stimulation)
Type: cell-based
Details: recombinant CHO-K1 cell line, CRE-luciferase reporter, antagonism of EC50 concentration of NECA; in some cases means of several determinations, rounded to two significant figures; read-out: A2b receptor IC50
Method in brief: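 CHO-K1 cells with CRE-driven luciferase; antagonists co-incubated with NECA at its EC50, determined in a pre-experiment on each test day. Luciferase read by luminescence 3 h after NECA addition.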

Chain of human adenosine A2b receptor (P29275 whole entry): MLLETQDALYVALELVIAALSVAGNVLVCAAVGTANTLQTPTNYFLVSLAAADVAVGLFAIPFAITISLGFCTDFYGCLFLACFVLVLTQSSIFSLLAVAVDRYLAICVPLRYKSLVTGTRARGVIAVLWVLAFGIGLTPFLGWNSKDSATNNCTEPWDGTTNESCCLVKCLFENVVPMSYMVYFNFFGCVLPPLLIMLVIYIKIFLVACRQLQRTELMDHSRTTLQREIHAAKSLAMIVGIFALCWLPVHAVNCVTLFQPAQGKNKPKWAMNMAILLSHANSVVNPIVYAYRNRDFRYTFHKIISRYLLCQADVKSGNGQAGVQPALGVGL

| Compound | IC50 [nM] |
| --- | --- |
| Cc1c(Cn2[nH]ccc2=O)sc2c1c(=O)n(CC(F)(F)F)c(=O)n2CC1CCCO1 (single isomer, unassigned) [Example 285, 5-Methyl-6-[(5-oxo-2,5-dihydro-1H-pyrazol-1-yl)methyl]-1-(tetrahydrofuran-2-ylmethyl)-3-(2,2,2-trifluoroethyl)thieno[2,3-d]pyrimidine-2,4(1H,3H)-dione] | 91 |
| C=CCn1c(=O)c2c(C)c(CN3CCNC3=O)sc2n(CCOC)c1=O [Example 85, 3-Allyl-1-(2-methoxyethyl)-5-methyl-6-[(2-oxoimidazolidin-1-yl)methyl]thieno[2,3-d]pyrimidine-2,4(1H,3H)-dione] | 18 |
| CCn1c(=O)c2c(C)c(CN3CCNC(=O)C3=O)sc2n(CCOC2CCCC2)c1=O [Example 395, 1-[2-(Cyclopentyloxy)ethyl]-6-[(2,3-dioxopiperazin-1-yl)methyl]-3-ethyl-5-methylthieno[2,3-d]pyrimidine-2,4(1H,3H)-dione] | 94 |
| Cc1c(CN2CCNC(=O)C2=O)sc2c1c(=O)n(C(C)C(F)(F)F)c(=O)n2CCC(F)(F)F (racemic) [Example 490, 6-[(2,3-Dioxopiperazin-1-yl)methyl]-5-methyl-3-(1,1,1-trifluoropropan-2-yl)-1-(3,3,3-trifluoropropyl)thieno[2,3-d]pyrimidine-2,4(1H,3H)-dione] | 19 |
| CCn1c(=O)c2c(C)c(Cn3cc[nH]c3=O)sc2n(CC2CCCO2)c1=O (single isomer, unassigned) [Example 243, 3-Ethyl-5-methyl-6-[(2-oxo-2,3-dihydro-1H-imidazol-1-yl)methyl]-1-(tetrahydrofuran-2-ylmethyl)thieno[2,3-d]pyrimidine-2,4(1H,3H)-dione] | 14 |
| COCCn1c(=O)n(CC(C)(C)C)c(=O)c2c(C)c(Cn3cc[nH]c3=O)sc21 [Example 506, 3-(2,2-Dimethylpropyl)-1-(2-methoxyethyl)-5-methyl-6-[(2-oxo-2,3-dihydro-1H-imidazol-1-yl)methyl]thieno[2,3-d]pyrimidine-2,4(1H,3H)-dione] | 12 |
| Cc1c(CN2CCNC(=O)C2=O)sc2c1c(=O)n(C(C)C)c(=O)n2CC1CCO1 (single isomer, unassigned) [Example 398, 6-[(2,3-Dioxopiperazin-1-yl)methyl]-3-isopropyl-5-methyl-1-(oxetan-2-ylmethyl)thieno[2,3-d]pyrimidine-2,4(1H,3H)-dione] | 240 |
| CCn1c(=O)c2c(C)c(CN3CCNC3=O)sc2n(CC2CCCCO2)c1=O (racemic) [Example 71, 3-Ethyl-5-methyl-6-[(2-oxoimidazolidin-1-yl)methyl]-1-(tetrahydro-2H-pyran-2-ylmethyl)thieno[2,3-d]pyrimidine-2,4(1H,3H)-dione (racemate)] | 70 |
| COCCn1c(=O)n(CC2CCCO2)c(=O)c2c(C)c(CN3CCNC3=O)sc21 (racemic) [Example 332, 1-(2-Methoxyethyl)-5-methyl-6-[(2-oxoimidazolidin-1-yl)methyl]-3-(tetrahydrofuran-2-ylmethyl)thieno[2,3-d]pyrimidine-2,4(1H,3H)-dione] | 110 |
| CCn1c(=O)c2c(C)c(CN3CCNC3=O)sc2n(CC2CCCO2)c1=O (single isomer, unassigned; enantiomer 2) [Example 70, 3-Ethyl-5-methyl-6-[(2-oxoimidazolidin-1-yl)methyl]-1-(tetrahydrofuran-2-ylmethyl)thieno[2,3-d]pyrimidine-2,4(1H,3H)-dione (Enantiomer 2)] | 21 |
| Cc1c(CN2CCNC2=O)sc2c1c(=O)n(CC(F)(F)F)c(=O)n2CC1CCO1 (single isomer, unassigned) [Example 208, 5-Methyl-1-(oxetan-2-ylmethyl)-6-[(2-oxoimidazolidin-1-yl)methyl]-3-(2,2,2-trifluoroethyl)thieno[2,3-d]pyrimidine-2,4(1H,3H)-dione] | 8.9 |
| C=CCn1cnn(Cc2sc3c(c2C)c(=O)n(CC)c(=O)n3CCOC)c1=O [Example 112, 6-[(4-Allyl-5-oxo-4,5-dihydro-1H-1,2,4-triazol-1-yl)methyl]-3-ethyl-1-(2-methoxyethyl)-5-methylthieno[2,3-d]pyrimidine-2,4(1H,3H)-dione] | 500 |
| Cc1c(CN2CCNC2=O)sc2c1c(=O)n(C(C)C(F)(F)F)c(=O)n2CCC(F)(F)F (stereo not shown) [Example 409, 5-Methyl-6-[(2-oxoimidazolidin-1-yl)methyl]-3-(t1,1,1-trifluoropropan-2-yl)-1-(3,3,3-trifluoropropyl)thieno[2,3-d]pyrimidine-2,4(1H,3H)-dione] | 14 |
| COC(C)Cn1c(=O)c2c(C)c(Cn3nc[nH]c3=O)sc2n(CCC(F)(F)F)c1=O (single isomer, unassigned) [Example 441, 3-(2-Methoxypropyl)-5-methyl-6-[(5-oxo-4,5-dihydro-1H-1,2,4-triazol-1-yl)methyl]-1-(3,3,3-trifluoropropyl)thieno[2,3-d]pyrimidine-2,4(1H,3H)-dione] | 8.6 |
| Cc1c(CN2CCNC2=S)sc2c1c(=O)n(CC(F)(F)F)c(=O)n2CC1CCCO1 (single isomer, unassigned) [Example 300, 5-Methyl-1-(tetrahydrofuran-2-ylmethyl)-6-[(2-thioxoimidazolidin-1-yl)methyl]-3-(2,2,2-trifluoroethyl)thieno[2,3-d]pyrimidine-2,4(1H,3H)-dione] | 14 |
| COCCn1c(=O)c2c(C)c(CN3CCNC3=NC#N)sc2n(CC2CCCO2)c1=O (racemic) [Example 367, [1-{[3-(2-Methoxyethyl)-5-methyl-2,4-dioxo-1-(tetrahydrofuran-2-ylmethyl)-1,2,3,4-tetrahydrothieno[2,3-d]pyrimidin-6-yl]methyl}imidazolidin-2-ylidene]cyanamide] | 33 |
| Cc1c(CN2CCNC(=O)C2=O)sc2c1c(=O)n(CC(C)(C)C)c(=O)n2CC1CCCO1 (single isomer, unassigned) [Example 484, 3-(2,2-Dimethylpropyl)-6-[(2,3-dioxopiperazin-1-yl)methyl]-5-methyl-1-(tetrahydrofuran-2-ylmethyl)thieno[2,3-d]pyrimidine-2,4(1H,3H)-dione] | 67 |
| Cc1c(CN2CCNC(=O)C2=O)sc2c1c(=O)n(CC(C)(C)C)c(=O)n2CCCF [Example 273, 3-(2,2-Dimethylpropyl)-6-[(2,3-dioxopiperazin-1-yl)methyl]-1-(3-fluoropropyl)-5-methylthieno[2,3-d]pyrimidine-2,4(1H,3H)-dione] | 19 |
| Cc1c(Cn2nc[nH]c2=O)sc2c1c(=O)n(CC(C)(C)C)c(=O)n2CC1CCCO1 (racemic) [Example 429, 3-(2,2-Dimethylpropyl)-5-methyl-6-[(5-oxo-4,5-dihydro-1H-1,2,4-triazol-1-yl)methyl]-1-(tetrahydrofuran-2-ylmethyl)thieno[2,3-d]pyrimidine-2,4(1H,3H)-dione] | 75 |

The next compounds have a lower IC50 than those just listed; values first:

| IC50 [nM] | Compound |
| --- | --- |
| 8 | CCn1c(=O)c2c(C)c(CN3CCNC3=O)sc2n(CC2CC2(F)F)c1=O (single isomer, unassigned; enantiomer 2) [Example 56, 1-[(2,2-Difluorocyclopropyl)methyl]-3-ethyl-5-methyl-6-[(2-oxoimidazolidin-1-yl)methyl]thieno[2,3-d]pyrimidine-2,4(1H,3H)-dione (Enantiomer 2)] |
| 7.8 | COCCn1c(=O)n(CC(C)OC)c(=O)c2c(C)c(CN3CCNC3=O)sc21 (single isomer, unassigned) [Example 234, 1-(2-Methoxyethyl)-3-(2-methoxypropyl)-5-methyl-6-[(2-oxoimidazolidin-1-yl)methyl]thieno[2,3-d]pyrimidine-2,4(1H,3H)-dione] |
| 7.3 | COCCn1c(=O)n(CC(C)(C)OC)c(=O)c2c(C)c(CN3CCNC3=S)sc21 [Example 172, 1-(2-Methoxyethyl)-3-(2-methoxy-2-methylpropyl)-5-methyl-6-[(2-thioxoimidazolidin-1-yl)methyl]thieno[2,3-d]pyrimidine-2,4(1H,3H)-dione] |
| 7.1 | CCn1c(=O)c2c(C)c(CN3CCNC3=NC#N)sc2n(CC2CCO2)c1=O (single isomer, unassigned) [Example 257, [1-{[3-Ethyl-5-methyl-1-(oxetan-2-ylmethyl)-2,4-dioxo-1,2,3,4-tetrahydrothieno[2,3-d]pyrimidin-6-yl]methyl}imidazolidin-2-ylidene]cyanamide] |
| 5.1 | Cc1c(CN2CCNC2=NC#N)sc2c1c(=O)n(C(C)C)c(=O)n2CC1CCCO1 (single isomer, unassigned) [Example 356, [1-{[3-Isopropyl-5-methyl-2,4-dioxo-1-(tetrahydrofuran-2-ylmethyl)-1,2,3,4-tetrahydrothieno[2,3-d]pyrimidin-6-yl]methyl}imidazolidin-2-ylidene]cyanamide] |
| 3.9 | Cc1c(CN2CCNC(=O)C2=O)sc2c1c(=O)n(CC(F)(F)F)c(=O)n2CCC(F)(F)F [Example 122, 6-[(2,3-Dioxopiperazin-1-yl)methyl]-5-methyl-3-(2,2,2-trifluoroethyl)-1-(3,3,3-trifluoropropyl)thieno[2,3-d]pyrimidine-2,4(1H,3H)-dione] |
| 3.1 | COCCn1c(=O)n(C(C)C)c(=O)c2c(C)c(CN3CCNC3=NC(=O)OC)sc21 [Example 378, Methyl [1-{[3-isopropyl-1-(2-methoxyethyl)-5-methyl-2,4-dioxo-1,2,3,4-tetrahydrothieno[2,3-d]pyrimidin-6-yl]methyl}imidazolidin-2-ylidene]carbamate] |
| 2.4 | Cc1c(CN2CCNC2=S)sc2c1c(=O)n(C(C)C)c(=O)n2CCCF [Example 298, 1-(3-Fluoropropyl)-3-isopropyl-5-methyl-6-[(2-thioxoimidazolidin-1-yl)methyl]thieno[2,3-d]pyrimidine-2,4(1H,3H)-dione] |
| 1.4 | CCn1c(=O)c2c(C)c(CN3CCNC3=O)sc2n(CC2CCC2)c1=O [Example 80, 1-(Cyclobutylmethyl)-3-ethyl-5-methyl-6-[(2-oxoimidazolidin-1-yl)methyl]thieno[2,3-d]pyrimidine-2,4(1H,3H)-dione] |

From patent publication US10428083B2, “Heterocyclylmethyl-thienouracile as antagonists of the adenosine-A2B-receptor” (BAYER PHARMA AKTIENGESELLSCHAFT, priority 2015, dated 2019)
